Assay results: patent US10317393B2, “Alkynyl sugar analogs for labeling and visualization of glycoconjugates in cells” (Academia Sinica, priority 2007, dated 2019)

What was measured:
Jurkat cells = test: Cell growth analysis after treatment with sugar analogs (cell numbers counted); format: cell-based, human
Experimental: FIGS. 1A, 1B, 1C and 1D show analysis of cells labeled with Fuc analogs. […] Jurkat cells were grown in the presence of 200 micromolar each Fuc analog for 3 days before cell numbers were counted. The data represent the percentage of treated cells vs. untreated cells (n=4).
It is also disclosed how treatment with exogenous Fuc analog affects cell growth rate. […] In contrast, the addition of 200 micromolar azido Fuc 2 inhibits cell growth considerably, by 65% when compared with the untreated cells. […] Such toxicity may lead to global change in expression, therefore a nontoxic probe is preferable for accurate probing of glycoconjugate expression.
Jurkat cells were cultivated (2×10^6/10 ml) in RPMI medium 1640 supplemented with 10% FCS and various concentrations of peracetylated alkynyl sugars 1, 2, or 4 or native sugars 3 or 5, for 1-3 days at 37° C. Cells were then harvested, washed with 0.1% FCS/PBS, and resuspended (10^6 cells) in 100 microliters of click reaction solution (0.1 mM biotin probe 6 or fluorogenic probe 7/0.1 mM Tris-thiazoleamine catalyst/0.1 mM CuSO4/0.5 mM sodium ascorbate, in PBS). The reaction was incubated at room temperature for 30 min, and then the cells were washed twice with 0.1% FCS/PBS. Cells treated with biotin probe 6 were subsequently stained with fluorescein-conjugated streptavidin (0.5 microgram per sample in 50 microliters of 1% FCS/PBS) for 30 min at 4° C., and washed three times with 1% FCS/PBS. Data were acquired by BD LSR II with FACSDiva software, and were analyzed by CellQuestPro software (BD Biosciences). Detection of fluorescent adduct with probe 7 was monitored with a 408 nm laser and a 440/40 bandpass filter for excitation and emission, respectively.

PC-3 cells = test: Lectin staining of tagged cells, flow cytometry; format: cell-based; conditions: 200 micromolar, three days
Experimental: FIGS. 9A and 9B show lectin staining of alkynyl-derivatized Fuc 1-tagged PC-3 prostate cancer cells. Cells were treated with 200 micromolar derivatized alkynyl-derivatized Fuc 1, or Fuc 3, or left untreated. After three days, cells were labeled with biotin-conjugated AAL/fluorescein-conjugated streptavidin shown in FIG. 9A or fluorescein-conjugated UEA-I shown in FIG. 9B. Fluorescent signal was detected by flow cytometry. AAL was used to detect α-1,6- or α-1,3-linked Fuc; UEA-I was used to detect α-1,2-linked Fuc. Filled histogram: untreated cells without lectin stain; open histogram c: untreated cells stained with lectin; open histogram b: control Fuc 3-treated cells stained with lectin; open histogram a: alkynyl-derivatized Fuc 1-treated cells stained with lectin. AAL, Aleuria Aurantia Lectin; UEA-1, Ulex Europaeus Agglutinin I.
PC-3 cells were grown in RPMI 1640 (Invitrogen) supplemented with 10% FCS and peracetylated alkynyl Fuc 1 or control Fuc 3 for 3 days at 37° C. Cells were then harvested, washed with 1% FCS/PBS, resuspended (5×10^5 cells) in 100 μl of staining solution (1 μg/ml lectin conjugates in 1% FCS/PBS). Cells were then incubated on ice for 30 min and washed twice with 1% FCS/PBS. […] Data were acquired by FACSCalibur, and were analyzed by CellQuestPro software (BD Biosciences).

H. pylori = test: Labeling and detection of fucosylated glycoconjugates in H. pylori (immunoprecipitation, SDS-PAGE, protein blot); format: cell-based, Helicobacter pylori
Experimental: Representative H. pylori strains isolated from human gastric biopsy specimens, including gastritis (HS), duodenal ulcer (HD), gastric ulcer (HU) and gastric cancer (HC), were subjected to MOE: all the strains were grown on CDC agar plate supplemented with 200 micromolar derivatized alkynyl Fuc 1 for two days under micro-aerobic atmosphere (5% O2, 15% CO2, 80% N2). […] Immunoprecipitates were then analyzed by SDS-PAGE and stained for visualization. […]
Protein extracts were prepared in lysis buffer (1% NP-40, 150 mM NaCl, 100 mM sodium phosphate pH 7.5, 1×EDTA-free protease inhibitor cocktail) and labeled with biotin probe 6 (protein 1 mg/ml with 0.1 mM azido biotin 6/0.1 mM Tris-thiazoleamine catalyst/1 mM CuSO4/2 mM sodium ascorbate in lysis buffer) via cycloaddition at room temperature for 1 h. […] Immunoprecipitates were then analyzed by SDS-PAGE and stained for visualization. […]
Detection of CagA on protein blots: Protein extracted from control or alkynyl Fuc 1 analog-treated HC samples were subjected to cycloaddition labeling to label with biotin probe (protein 1 mg/ml with 0.1 mM azido biotin 6/0.1 mM Tris-thiazoleamine catalyst/1 mM CuSO4/2 mM sodium ascorbate in lysis buffer), followed by immunoprecipitation with anti-CagA antibody (Santa Cruz). The derivatized alkynyl Fuc tags/biotin labeling on CagA protein were detected by peroxidase-conjugated streptavidin on protein blot.

1,2,3,4-tetraacetyl alkynyl fucose [alkynyl Fuc 1]
number of cells after 3 days versus cells grown without exogenous Fuc (Jurkat cells; 200 micromolar, 3 days): similar | toxicity to cells (summary statement) (Jurkat cells; at levels required for efficient labeling): much less toxic | binding of Ulex Europaeus Agglutinin I (UEA-1) to treated cells versus control (PC-3 cells): significantly lower avidity | binding of aleuria aurantia lectin to treated cells versus control (PC-3 cells): significantly lower avidity | tagged fucosyl proteins isolated by anti-biotin immunoprecipitation (H. pylori; 200 micromolar, two days, strains HS, HD, HU, HC): several proteins were detected | biotinylated Fuc tags on CagA protein (protein blot) (H. pylori; HC strain, anti-CagA immunoprecipitation): specific signal is only detected in MOE-tagged HC strain
